From publication PMC6390652 (Toxicological Sciences, 2018)
Where two headings read alike, the source gives them in different places.

Key:
[1] = system: human GI microtissues (EpiIntestinal-FT, ileal); experiment: Human GI microtissue barrier function assay; type: cell-based; settings: for TEER (IC15): human microtissue, blinded, unit not given; for IC15: Homo sapiens
human GI microtissue [2] = experiment: GI microtissue TEER response kinetics; type: cell-based
human GI microtissue [3] = experiment: MTT viability assay; type: cell-based; settings: Caco-2, read-out: MTT IC50
Caco-2 cells = settings: for Caco-2 TEER IC15: Caco-2 transwell, top conc. 100 μM, unit inferred; for Caco-2 TEER IC15/Cmax: human
[4] = 96 h, read-out: Microtissue Exp 1 TEER IC15
[5] = read-out: Microtissue Exp 2 TEER IC15

| SMILES | IC15 [1, 4] | IC15 [1, 5] | IC50 (human GI microtissue [3]) | Caco-2 TEER IC15 (Caco-2 cells) | other results |
| --- | --- | --- | --- | --- | --- |
| CSCC[C@H](NC(=O)c1cc(NC[C@@H]2C[C@H](SC(=O)c3cccnc3)CN2)ccc1CCc1ccc(F)cc1)C(=O)OC(C)C [AZD3409] |  |  |  |  | TEER (IC15) [1]: 3.0E-06; TEER Diarrhea-Genic Prediction ([1]; scored with TEER IC15/Cmax ratio < 80): Active |
| CNC(=O)CN1CCC(Oc2cc3c(Nc4cccc(Cl)c4F)ncnc3cc2OC)CC1 [AZD8931] |  |  |  |  | TEER Diarrhea-Genic Prediction [1]: Active; TEER (IC15) [1]: 3.0E-9; TEER recovery after washout (human GI microtissue [2]; 100 μM for 3 days, then washout (first cycle)): quickly recovered TEER after washout; Effect on TEER during 3-day treatment period (human GI microtissue [2]; 100 μM, 3 days continuous, TEER measured daily): pronounced decrease in TEER; TEER recovery after second treatment cycle (human GI microtissue [2]; 100 μM, second treatment cycle): slower |
| CN(C)C/C=C/C(=O)Nc1cc2c(Nc3ccc(F)c(Cl)c3)ncnc2cc1O[C@H]1CCOC1 [Afatinib] | 6 µM | 8.5 µM | 30 µM | 9 µM |  |
| COc1cc2nc(N(C)CCCNC(=O)C3CCCO3)nc(N)c2cc1OC (stereo not drawn) [Alfuzosin] | > 100 µM | > 100 µM | > 100 µM |  | Caco-2 TEER IC15/Cmax (Caco-2 cells): 3132 |
| CCCCc1oc2ccccc2c1C(=O)c1cc(I)c(OCCN(CC)CC)c(I)c1 [Amiodarone] | 40 µM |  |  |  |  |
| CCOC(=O)C1=C(COCCN)NC(C)=C(C(=O)OC)C1c1ccccc1Cl (stereo not drawn) [Amlodipine] | 15 µM | 10 µM | 45 µM | 30 µM |  |
| CNC(=O)c1ccccc1Sc1ccc2c(/C=C/c3ccccn3)n[nH]c2c1 [Axitinib] | 1 µM | > 100 µM |  |  |  |
| CC(C)C[C@H](NC(=O)[C@H](Cc1ccccc1)NC(=O)c1cnccn1)B(O)O [Bortezomib] | 1 µM | 1 µM | > 100 µM | 1 µM |  |
| CCCCCOC(=O)Nc1nc(=O)n([C@@H]2O[C@H](C)[C@@H](O)[C@H]2O)cc1F [Capecitabine] | 1 µM | 1 µM | > 100 µM | > 100 µM |  |
| COc1cc2c(c(OC)c1OC)-c1ccc(OC)c(=O)cc1[C@@H](NC(C)=O)CC2 [Colchicine] | > 100 µM | 1 µM |  |  |  |
| C[C@@H](Oc1cc(-c2cnn(C3CCNCC3)c2)cnc1N)c1c(Cl)ccc(F)c1Cl [Crizotinib] | 9.5 µM | 9.5 µM | 22 µM | 8 µM |  |
| C[C@@H]1C[C@H]2[C@@H]3CCC4=CC(=O)C=C[C@]4(C)[C@@]3(F)[C@@H](O)C[C@]2(C)[C@@]1(O)C(=O)CO [Dexamethasone] | > 100 µM | > 100 µM | > 100 µM | > 100 µM |  |
| Cc1cccc([C@H](C)c2cnc[nH]2)c1C [Dexmedetomidine] | 40 µM | 40 µM | > 100 µM |  | Caco-2 TEER IC15/Cmax (Caco-2 cells): 21138 |
| CC(=O)Oc1cccc2c1C(=O)c1c(OC(C)=O)cc(C(=O)O)cc1C2=O [Diacerein] | 40 µM | 40 µM | 65 µM | > 100 µM |  |
| CC(=O)O[C@@]12CO[C@@H]1C[C@H](O)[C@@]1(C)C(=O)[C@H](O)C3=C(C)[C@@H](OC(=O)[C@H](O)[C@@H](NC(=O)OC(C)(C)C)c4ccccc4)C[C@@](O)([C@@H](OC(=O)c4ccccc4)[C@H]21)C3(C)C [Docetaxel] | 40 µM | 40 µM | 65 µM | > 100 µM |  |
| CN(CCOc1ccc(NS(C)(=O)=O)cc1)CCc1ccc(NS(C)(=O)=O)cc1 [Dofetilide] | > 100 µM | > 100 µM | > 100 µM | > 100 µM |  |

| SMILES | IC15 [1, 4] | IC15 [1, 5] | IC50 (human GI microtissue [3]) | Caco-2 TEER IC15 (Caco-2 cells) | other results |
| --- | --- | --- | --- | --- | --- |
| CC(C)(C)NC(=O)[C@H]1CC[C@H]2[C@@H]3CC[C@H]4NC(=O)C=C[C@]4(C)[C@H]3CC[C@]12C [Finasteride] | 80 µM | > 100 µM | > 100 µM | > 100 µM |  |
| O=C(NCC1CCCCN1)c1cc(OCC(F)(F)F)ccc1OCC(F)(F)F (stereo not drawn) [Flecainide] | 80 µM | > 100 µM | > 100 µM | > 100 µM |  |
| CO[C@H]1O[C@H](COS(=O)(=O)O)[C@@H](O[C@@H]2O[C@@H](C(=O)O)[C@@H](O[C@H]3O[C@H](COS(=O)(=O)O)[C@@H](O[C@@H]4O[C@H](C(=O)O)[C@@H](O[C@H]5O[C@H](COS(=O)(=O)O)[C@@H](O)[C@H](O)[C@H]5NS(=O)(=O)O)[C@H](O)[C@H]4O)[C@H](OS(=O)(=O)O)[C@H]3NS(=O)(=O)O)[C@H](O)[C@H]2OS(=O)(=O)O)[C@H](O)[C@H]1NS(=O)(=O)O [Fondaparinux] | > 100 µM | > 100 µM | > 100 µM | > 100 µM |  |
| O=C(CCCN1CCC(O)(c2ccc(Cl)cc2)CC1)c1ccc(F)cc1 [Haloperidol] | 22 µM | 8 µM |  | 30 µM |  |
| CC(=O)[C@]1(O)Cc2c(O)c3c(c(O)c2[C@@H](O[C@H]2C[C@H](N)[C@H](O)[C@H](C)O2)C1)C(=O)c1ccccc1C3=O [Idarubicin] | 4.3 µM | 2.5 µM | 10 µM | 8 µM |  |
| Cc1ccc(NC(=O)c2ccc(CN3CCN(C)CC3)cc2)cc1Nc1nccc(-c2cccnc2)n1 [Imatinib] | 7 µM | 8 µM |  |  |  |
| CC(C)NCC(O)c1ccc(O)c(O)c1 (stereo not drawn) [Isoprenaline] | > 100 µM | > 100 µM | > 100 µM | > 100 µM |  |
| CNCCCC12CCC(c3ccccc31)c1ccccc12 [Maprotiline] | 6 µM | 9 µM |  |  |  |
| COc1c2occc2cc2ccc(=O)oc12 [Methoxsalen] | 150 µM | 150 µM | 150 µM |  |  |
| CC(C)(C)NCC(O)COc1cccc2c1CC(O)C(O)C2 (stereo not drawn) [Nadolol] | > 100 µM | > 100 µM | > 100 µM | > 100 µM |  |
| CCCCC[C@H](O)/C=C/[C@@H]1[C@H]2C/C(=C/CCCC(=O)O)O[C@H]2C[C@H]1O [Prostacyclin] | > 100 µM | > 100 µM | > 100 µM | > 100 µM |  |
| C=C[C@H]1C[N@@]2CC[C@H]1C[C@@H]2[C@@H](O)c1ccnc2ccc(OC)cc12 [Quinidine] | 30 µM | 30 µM | > 100 µM |  |  |
| CNC(=O)c1cc(Oc2ccc(NC(=O)Nc3ccc(Cl)c(C(F)(F)F)c3)cc2)ccn1 [Sorafenib] | 7.9 µM | 7.9 µM | 65 µM | 15 µM |  |
| C=CC[C@@H]1/C=C(\C)C[C@H](C)C[C@H](OC)[C@H]2O[C@@](O)(C(=O)C(=O)N3CCCC[C@H]3C(=O)O[C@H](/C(C)=C/[C@@H]3CC[C@@H](O)[C@H](OC)C3)[C@H](C)[C@@H](O)CC1=O)[C@H](C)C[C@@H]2OC [Tacrolimus] | 30 µM | 40 µM | 55 µM | 30 µM |  |
| C[C@]12C=CC(=O)C=C1CC[C@H]1[C@@H]3C[C@@H](O)[C@](O)(C(=O)CO)[C@@]3(C)C[C@H](O)[C@@]12F [Triamcinolone] | > 100 µM | > 100 µM | > 100 µM | > 100 µM |  |
| COc1ccc(CCN(C)CCCC(C#N)(c2ccc(OC)c(OC)c2)C(C)C)cc1OC (stereo not drawn) [Verapamil] | 40 µM | 45 µM |  |  |  |
